Laboratory results from the supplement of paper PMC10307832.

Key:
Assay in all cases: relative viability (nuclei count vs DMSO), 5 days (fraction); higher = more cells survive
NCI-H1395 = test system: NCI-H1395
In short: (§1)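 The day after seeding in 1536-well plates, lung cancer cell lines were treated by pin tool with a single drug, or with a fixed anchor-drug dose together with five library-drug doses (not always all listed) in √10 steps. After 5 days, a combined fix-and-stain solution (final 0.05% Triton X-100, 1% formaldehyde, 1 ug/ml Hoechst) was added. Nuclei counted on 4× images gave relative viability as treated counts over vehicle counts, reported as the median of duplicate plates.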

HCC-44 = test system: HCC-44
In short: as §1

HCC-15 = test system: HCC-15
In short: as §1

LCLC-103H = test system: LCLC-103H
In short: as §1

NCI-H1623 = test system: NCI-H1623
In short: as §1

EKVX = test system: EKVX
In short: as §1

UMC-11 = test system: UMC-11
In short: as §1

NCI-H1648 = test system: NCI-H1648
In short: as §1

NCI-H1755 = test system: NCI-H1755
In short: as §1

O=c1cc(-c2cccc3c2Sc2ccccc2S3)oc(N2CCOCC2)c1 + Cc1cc(Nc2cc(N3CCN(C)CC3)nc(Sc3ccc(NC(=O)C4CC4)cc3)n2)n[nH]1 [Tozasertib] (partner 0.1 µM)
relative viability (NCI-H1395; first compound 0.08 µM): 0.755
relative viability (NCI-H1395; first compound 0.253 µM): 0.738
relative viability (NCI-H1395; first compound 0.8 µM): 0.762
relative viability (NCI-H1395; first compound 2.53 µM): 0.681
relative viability (NCI-H1395; first compound 8 µM): 0.703
relative viability (HCC-44; first compound 0.08 µM): 0.888
relative viability (HCC-44; first compound 0.253 µM): 1.01
relative viability (HCC-44; first compound 2.53 µM): 0.717
relative viability (HCC-44; first compound 8 µM): 0.54
relative viability (HCC-15; first compound 0.08 µM): 0.437
relative viability (HCC-15; first compound 0.253 µM): 0.428
relative viability (HCC-15; first compound 0.8 µM): 0.504
relative viability (HCC-15; first compound 2.53 µM): 0.39
relative viability (HCC-15; first compound 8 µM): 0.307
relative viability (LCLC-103H; first compound 0.08 µM): 0.285
relative viability (LCLC-103H; first compound 0.253 µM): 0.502
relative viability (LCLC-103H; first compound 0.8 µM): 0.494
relative viability (LCLC-103H; first compound 2.53 µM): 0.369
relative viability (LCLC-103H; first compound 8 µM): 0.473
relative viability (NCI-H1623; first compound 0.08 µM): 0.445
relative viability (NCI-H1623; first compound 0.253 µM): 0.414
relative viability (NCI-H1623; first compound 0.8 µM): 0.393
relative viability (NCI-H1623; first compound 2.53 µM): 0.4
relative viability (NCI-H1623; first compound 8 µM): 0.43
relative viability (EKVX; first compound 0.08 µM): 0.517
relative viability (EKVX; first compound 0.253 µM): 0.376
relative viability (EKVX; first compound 0.8 µM): 0.451
relative viability (EKVX; first compound 2.53 µM): 0.377
relative viability (EKVX; first compound 8 µM): 0.412
relative viability (UMC-11; first compound 0.08 µM): 0.198
relative viability (UMC-11; first compound 0.253 µM): 0.19
relative viability (UMC-11; first compound 0.8 µM): 0.189
relative viability (UMC-11; first compound 2.53 µM): 0.202
relative viability (UMC-11; first compound 8 µM): 0.234
relative viability (NCI-H1648; first compound 0.08 µM): 0.492
relative viability (NCI-H1648; first compound 0.253 µM): 0.386
relative viability (NCI-H1648; first compound 0.8 µM): 0.426
relative viability (NCI-H1648; first compound 2.53 µM): 0.411
relative viability (NCI-H1648; first compound 8 µM): 0.399
relative viability (NCI-H1755; first compound 0.08 µM): 0.609
relative viability (NCI-H1755; first compound 0.253 µM): 0.582
relative viability (NCI-H1755; first compound 0.8 µM): 0.592
relative viability (NCI-H1755; first compound 2.53 µM): 0.64
relative viability (NCI-H1755; first compound 8 µM): 0.567

COc1nc(C)cnc1NS(=O)(=O)c1cccnc1-c1ccc(-c2nnco2)cc1 [Zibotentan] + COc1cccc2cc(-c3nc([C@H]4CC[C@H](C(=O)O)CC4)n4ncnc(N)c34)[nH]c12 [OSI-027] (partner 0.5 µM)
relative viability (NCI-H1395; first compound 0.08 µM): 0.727
relative viability (NCI-H1395; first compound 0.253 µM): 0.633
relative viability (NCI-H1395; first compound 0.8 µM): 0.577
relative viability (NCI-H1395; first compound 2.53 µM): 0.7
relative viability (HCC-44; first compound 0.08 µM): 0.585
relative viability (HCC-44; first compound 0.8 µM): 0.621
relative viability (HCC-44; first compound 2.53 µM): 0.558
relative viability (HCC-15; first compound 0.08 µM): 0.644
relative viability (HCC-15; first compound 0.8 µM): 0.759
relative viability (HCC-15; first compound 2.53 µM): 0.781
relative viability (LCLC-103H; first compound 0.08 µM): 0.453
relative viability (LCLC-103H; first compound 0.253 µM): 0.467
relative viability (LCLC-103H; first compound 0.8 µM): 0.451
relative viability (LCLC-103H; first compound 2.53 µM): 0.465
relative viability (NCI-H1623; first compound 0.08 µM): 0.423
relative viability (NCI-H1623; first compound 0.253 µM): 0.42
relative viability (NCI-H1623; first compound 0.8 µM): 0.424
relative viability (NCI-H1623; first compound 2.53 µM): 0.443
relative viability (EKVX; first compound 0.08 µM): 0.715
relative viability (EKVX; first compound 0.253 µM): 0.706
relative viability (EKVX; first compound 0.8 µM): 0.695
relative viability (EKVX; first compound 2.53 µM): 0.77
relative viability (UMC-11; first compound 0.08 µM): 0.562
relative viability (UMC-11; first compound 0.253 µM): 0.462
relative viability (UMC-11; first compound 0.8 µM): 0.467
relative viability (UMC-11; first compound 2.53 µM): 0.514
relative viability (NCI-H1648; first compound 0.08 µM): 0.255
relative viability (NCI-H1648; first compound 0.253 µM): 0.241
relative viability (NCI-H1648; first compound 0.8 µM): 0.256
relative viability (NCI-H1648; first compound 2.53 µM): 0.242
relative viability (NCI-H1755; first compound 0.08 µM): 0.716
relative viability (NCI-H1755; first compound 0.253 µM): 0.685
relative viability (NCI-H1755; first compound 0.8 µM): 0.715
relative viability (NCI-H1755; first compound 2.53 µM): 0.793

COc1nc(C)cnc1NS(=O)(=O)c1cccnc1-c1ccc(-c2nnco2)cc1 [Zibotentan] + Cc1cc(Nc2cc(N3CCN(C)CC3)nc(Sc3ccc(NC(=O)C4CC4)cc3)n2)n[nH]1 [Tozasertib] (partner 0.1 µM)
relative viability (NCI-H1395; first compound 0.08 µM): 0.74
relative viability (NCI-H1395; first compound 0.253 µM): 0.762
relative viability (NCI-H1395; first compound 0.8 µM): 0.733
relative viability (NCI-H1395; first compound 2.53 µM): 0.794
relative viability (HCC-44; first compound 0.08 µM): 1.33
relative viability (HCC-44; first compound 0.8 µM): 0.852
relative viability (HCC-44; first compound 2.53 µM): 0.862
relative viability (HCC-15; first compound 0.08 µM): 0.481
relative viability (HCC-15; first compound 0.253 µM): 0.314
relative viability (HCC-15; first compound 0.8 µM): 0.373
relative viability (HCC-15; first compound 2.53 µM): 0.402
relative viability (LCLC-103H; first compound 0.08 µM): 0.451
relative viability (LCLC-103H; first compound 0.253 µM): 0.509
relative viability (LCLC-103H; first compound 0.8 µM): 0.412
relative viability (LCLC-103H; first compound 2.53 µM): 0.478
relative viability (NCI-H1623; first compound 0.08 µM): 0.464
relative viability (NCI-H1623; first compound 0.8 µM): 0.43
relative viability (NCI-H1623; first compound 2.53 µM): 0.427
relative viability (EKVX; first compound 0.08 µM): 0.414
relative viability (EKVX; first compound 0.253 µM): 0.348
relative viability (EKVX; first compound 0.8 µM): 0.365
relative viability (EKVX; first compound 2.53 µM): 0.428
relative viability (UMC-11; first compound 0.08 µM): 0.23
relative viability (UMC-11; first compound 0.253 µM): 0.204
relative viability (UMC-11; first compound 0.8 µM): 0.201
relative viability (UMC-11; first compound 2.53 µM): 0.203
relative viability (NCI-H1648; first compound 0.08 µM): 0.499
relative viability (NCI-H1648; first compound 0.253 µM): 0.403
relative viability (NCI-H1648; first compound 0.8 µM): 0.47
relative viability (NCI-H1648; first compound 2.53 µM): 0.576
relative viability (NCI-H1755; first compound 0.08 µM): 0.475
relative viability (NCI-H1755; first compound 0.253 µM): 0.58
relative viability (NCI-H1755; first compound 0.8 µM): 0.602
relative viability (NCI-H1755; first compound 2.53 µM): 0.657
